In PubChem BioAssay AID1361 (SRMLSC, 2008):
The source made the active and inactive calls. How the calls were made is not given here.

Assay: blockers of mitochondrial fusion, WT vs mutant – cell-based, chemical genetic, wild-type and mutant, confirmation (AID 1361)
Details: Cell-based mitochondrial fusion phenotype, imaging
[1] = mutant cells, measured here: mutant cell line IC50

Row | IC50 (WT cells) | IC50 [1] [µM] | Structure (SMILES)
1 | > 25 µM (inactive) | > 25 | COc1cccc(-c2ccc(C#N)c(OC(=O)c3c(Cl)cccc3Cl)n2)c1
2 | 10.9 µM | 23.2 | COc1ccc(NC(=S)N(CCCN2CCCC2)Cc2cccn2Cc2ccc(Cl)cc2)cc1Cl
3 | 14.6 µM | 20 | Cc1cccc(-n2ncc3c(N4CC(C)CC(C)C4)ncnc32)c1 (stereo unspecified)
4 | 14.7 µM | > 25 | Cc1csc(NC(=O)c2c(O)c3c(n(CC(C)C)c2=O)CCCC3)n1
5 | > 25 µM (inactive) | > 25 | CN1CCN(c2nc(-c3cccnc3)nc3ccccc23)CC1
6 | 11 µM | 23.7 | Cc1ccc(C2CN(C)C3(C(=O)Nc4ccccc43)C23COc2ccccc2C3=O)cc1 (stereo unspecified)
7 | 23.2 µM | > 25 | CC(C)(C)n1nnnc1C(c1cccs1)N(Cc1cccnc1)Cc1ccccc1Cl (stereo unspecified)
8 | 22.5 µM | > 25 | C(=N\Nc1nc(Nc2ccccc2)nc(N2CCCCC2)n1)/c1ccco1
9 | > 25 µM (inactive) | > 25 | c1n[nH]c(NCc2ccc3c(c2)OCO3)n1
10 | 15.5 µM | > 25 | Clc1ccc(C(c2nnnn2C2CCCCC2)N(Cc2cccnc2)Cc2ccco2)cc1 (stereo unspecified)
11 | 20.9 µM | > 25 | C(=N\Nc1nc(Nc2ccccc2)nc(Nc2ccccc2)n1)/c1cccnc1
12 | 9.75 µM | > 25 | Cc1ccc(Cl)cc1N1CCN(C(=O)c2cccc3c(=O)c(C)c(-c4ccccc4)oc23)CC1
13 | > 25 µM (inactive) | > 25 | N=c1c(C(=O)NCc2ccco2)cc2c(=O)n3ccccc3nc2n1Cc1ccc(Cl)cc1
14 | > 25 µM (inactive) | > 25 | O=C(Cc1c(O)c2ccccc2[nH]c1=O)NCc1ccccc1F
15 | 9.63 µM | > 25 | Cc1ccc(S(=O)(=O)n2c3ccc(Cl)cc3c3nc(C)sc32)cc1
16 | 14.8 µM | > 25 | Cc1cccc(N2CCN(C(=O)COc3ccc4c(c3)CCC4)CC2)c1C
17 | 7.68 µM | > 25 | CC1=CN2C(=N)/C(=C/c3ccc(Sc4ccc(C)cc4)o3)C(=O)N=C2S1

Row | IC50 (WT cells) | IC50 [1] [µM] | Structure (SMILES)
18 | 11.2 µM | 23.9 | CCOC(=O)c1cnc(SC)nc1Sc1cc(Cl)ccc1Cl
19 | > 25 µM (inactive) | > 25 | COCCCNC(=O)CS(=O)(=O)Cc1nc(-c2cccc(OC)c2)oc1C
20 | > 25 µM (inactive) | > 25 | Cc1ccc(SCC(=O)O/N=C(\N)c2cccc([N+](=O)[O-])c2)cc1
21 | 25 µM (inactive) | > 25 | CC(C)N(C(=S)NC1CC2CCC1C2)c1ccccc1 (stereo unspecified)
22 | 14.7 µM | > 25 | Cc1cccc(COCC(CC(C)C)N2CCN(C(=O)c3ccc(C(C)(C)C)cc3)CCC2=O)c1 (stereo unspecified)
23 | 7.6 µM | > 25 | CC/C(=C\C1CCCCC1)C(NP(=O)(c1ccccc1)c1ccccc1)c1ccccc1 (stereo unspecified)
24 | > 25 µM (inactive) | > 25 | Oc1cccc(C2c3[nH]c4ccccc4c3CCN2Cc2cnn(-c3ccccc3)c2)c1 (stereo unspecified)
25 | > 25 µM (inactive) | > 25 | CCC(=O)Nc1ccc(Br)c(Cl)c1
26 | > 25 µM (inactive) | > 25 | Nn1c(SCC(=O)Nc2ccc3c(c2)OCO3)nnc1-c1ccncc1
27 | 22.8 µM | > 25 | N#CCc1ccc(NS(=O)(=O)c2ccc(C3CCCCC3)cc2)cc1
28 | 17.3 µM | > 25 | CCC(C(=O)OCC(=O)Nc1ccccc1-c1ccccc1)c1ccccc1 (stereo unspecified)
29 | 17.7 µM | > 25 | O=C(COC(=O)c1ccc([N+](=O)[O-])s1)Nc1ccccc1
30 | 11.6 µM | > 25 | COc1ccc(/C=C/c2nc3cc(-c4ccccc4)ccc3o2)cc1O
31 | > 25 µM (inactive) | > 25 | CCOc1ccc(OCC)c(S(=O)(=O)NCCOC23CC4CC(CC(C4)C2)C3)c1
32 | 12.9 µM | > 25 | COC(=O)[C@H](Cc1ccccc1)NC(=O)O[C@H]1C(=O)c2ccc(OC)cc2O[C@@H]1c1ccc2c(c1)OCO2
33 | 12.2 µM | > 25 | Cc1onc(-c2ccccc2Cl)c1C(=O)Nc1sc2c(c1C(N)=O)CCC(C)C2 (stereo unspecified)
